Source: ChEMBL document CHEMBL2311510, “A new single-photon emission computed tomography (SPECT) imaging agent for serotonin transporters: [(125)I]Flip-IDAM, (2-((2-((dimethylamino)methyl)-4-iodophenyl)thio)phenyl)methanol” (Bioorg Med Chem Lett, 2013)

Assays:
Nucleic Acid [1] = assay: Ratio of drug level in rest of brain region to cerebellum in Sprague-Dawley rat at 11 uCi, iv measured 2 mins post compound dose; type: ADME, organism-based; conditions: in vivo
Bone = assay: Biodistribution in Sprague-Dawley rat bone at 11 uCi, iv measured 2 mins post compound dose; type: ADME, organism-based, Bone element; conditions: in vivo
Cerebellum = assay: Biodistribution in Sprague-Dawley rat cerebellum at 11 uCi, iv measured 30 mins post compound dose; type: ADME, organism-based; conditions: in vivo, 0.5 h
Lung [2] = assay: Biodistribution in Sprague-Dawley rat lung assessed as compound level per organ at 11 uCi, iv measured 2 mins post compound dose; type: ADME, organism-based; conditions: in vivo
Nucleic Acid [3] = assay: Ratio of drug level in striatum to cerebellum in Sprague-Dawley rat at 11 uCi, iv measured 2 mins post compound dose; type: ADME, organism-based; conditions: in vivo
Nucleic Acid [4] = assay: Ratio of drug level in striatum to cerebellum in Sprague-Dawley rat at 11 uCi, iv measured 30 mins post compound dose; type: ADME, organism-based; conditions: in vivo, 0.5 h
Spleen = assay: Biodistribution in Sprague-Dawley rat spleen at 11 uCi, iv measured 60 mins post compound dose; type: ADME, organism-based; conditions: in vivo, 1 h
Nucleic Acid [5] = assay: Ratio of drug level in rest of brain region to cerebellum in Sprague-Dawley rat at 11 uCi, iv measured 60 mins post compound dose; type: ADME, organism-based; conditions: in vivo, 1 h
Heart [6] = assay: Biodistribution in Sprague-Dawley rat heart assessed as compound level per organ at 11 uCi, iv measured 60 mins post compound dose; type: ADME, organism-based; conditions: in vivo, 1 h
Nucleic Acid [7] = assay: Ratio of drug level in cortex to cerebellum in Sprague-Dawley rat at 11 uCi, iv measured 30 mins post compound dose; type: ADME, organism-based; conditions: in vivo, 0.5 h
Lung [8] = assay: Biodistribution in Sprague-Dawley rat lung at 11 uCi, iv measured 2 mins post compound dose; type: ADME, organism-based; conditions: in vivo
Nucleic Acid [9] = assay: Ratio of drug level in hypothalamus to cerebellum in Sprague-Dawley rat at 11 uCi, iv measured 60 mins post compound dose; type: ADME, organism-based; conditions: in vivo, 1 h
Muscle tissue [10] = assay: Biodistribution in Sprague-Dawley rat muscle at 11 uCi, iv measured 120 mins post compound dose; type: ADME, organism-based; conditions: in vivo, 2 h
Muscle tissue [11] = assay: Biodistribution in Sprague-Dawley rat muscle assessed as compound level per organ at 11 uCi, iv measured 2 mins post compound dose; type: ADME, organism-based; conditions: in vivo
Brain = assay: Biodistribution in Sprague-Dawley rat rest of brain at 11 uCi, iv measured 30 mins post compound dose; type: ADME, organism-based; conditions: in vivo, 0.5 h
Pancreas [12] = assay: Biodistribution in Sprague-Dawley rat pancreas at 11 uCi, iv measured 60 mins post compound dose; type: ADME, organism-based; conditions: in vivo, 1 h
Nucleic Acid [13] = assay: Ratio of drug level in rest of brain region to cerebellum in Sprague-Dawley rat at 11 uCi, iv measured 30 mins post compound dose; type: ADME, organism-based; conditions: in vivo, 0.5 h
Kidney = assay: Biodistribution in Sprague-Dawley rat kidney assessed as compound level per organ at 11 uCi, iv measured 2 mins post compound dose; type: ADME, organism-based; conditions: in vivo
Nucleic Acid [14] = assay: Ratio of drug level in cortex to cerebellum in Sprague-Dawley rat at 11 uCi, iv measured 120 mins post compound dose; type: ADME, organism-based; conditions: in vivo, 2 h
Nucleic Acid [15] = assay: Ratio of drug level in cortex to cerebellum in Sprague-Dawley rat at 11 uCi, iv measured 2 mins post compound dose; type: ADME, organism-based; conditions: in vivo
Heart [16] = assay: Biodistribution in Sprague-Dawley rat heart at 11 uCi, iv measured 60 mins post compound dose; type: ADME, organism-based; conditions: in vivo, 1 h
Heart [17] = assay: Biodistribution in Sprague-Dawley rat heart assessed as compound level per organ at 11 uCi, iv measured 2 mins post compound dose; type: ADME, organism-based; conditions: in vivo
Liver = assay: Biodistribution in Sprague-Dawley rat liver at 11 uCi, iv measured 30 mins post compound dose; type: ADME, organism-based; conditions: in vivo, 0.5 h
Muscle tissue [18] = assay: Biodistribution in Sprague-Dawley rat muscle assessed as compound level per organ at 11 uCi, iv measured 120 mins post compound dose; type: ADME, organism-based; conditions: in vivo, 2 h
Heart [19] = assay: Biodistribution in Sprague-Dawley rat heart at 11 uCi, iv measured 120 mins post compound dose; type: ADME, organism-based; conditions: in vivo, 2 h
Nucleic Acid [20] = assay: Ratio of drug level in hippocampus to cerebellum in Sprague-Dawley rat at 11 uCi, iv measured 60 mins post compound dose; type: ADME, organism-based; conditions: in vivo, 1 h
Pancreas [21] = assay: Biodistribution in Sprague-Dawley rat pancreas at 11 uCi, iv measured 30 mins post compound dose; type: ADME, organism-based; conditions: in vivo, 0.5 h
Heart [22] = assay: Biodistribution in Sprague-Dawley rat heart assessed as compound level per organ at 11 uCi, iv measured 30 mins post compound dose; type: ADME, organism-based; conditions: in vivo, 0.5 h
Hippocampus = assay: Biodistribution in Sprague-Dawley rat hippocampus at 11 uCi, iv measured 2 mins post compound dose; type: ADME, organism-based; conditions: in vivo

## CN(C)Cc1cc([125I])ccc1Sc1ccccc1CO
Nucleic Acid [1]
  Ratio: 0.75
Bone
  Drug uptake: 0.6 % ID/g
Cerebellum
  Drug uptake: 0.25 % ID/g
Lung [2]
  Drug uptake: 6.52 %ID
Nucleic Acid [3]
  Ratio: 0.84
Nucleic Acid [4]
  Ratio: 3.13
Spleen
  Drug uptake: 0.22 % ID/g
Nucleic Acid [5]
  Ratio: 1.1
Heart [6]
  Drug uptake: 0.15 %ID
Nucleic Acid [7]
  Ratio: 0.82
Lung [8]
  Drug uptake: 3.23 % ID/g
Nucleic Acid [9]
  Ratio: 2.77
Muscle tissue [10]
  Drug uptake: 0.06 % ID/g
Muscle tissue [11]
  Drug uptake: 21.9 %ID
Brain
  Drug uptake: 0.55 % ID/g
Pancreas [12]
  Drug uptake: 0.28 % ID/g
Nucleic Acid [13]
  Ratio: 2.22
Kidney
  Drug uptake: 4.61 %ID
Nucleic Acid [14]
  Ratio: 1.24
Nucleic Acid [15]
  Ratio: 0.92
Heart [16]
  Drug uptake: 0.17 % ID/g
Heart [17]
  Drug uptake: 1.17 %ID
Liver
  Drug uptake: 1.28 % ID/g
Muscle tissue [18]
  Drug uptake: 5.45 %ID
Heart [19]
  Drug uptake: 0.14 % ID/g
Nucleic Acid [20]
  Ratio: 1.83
Pancreas [21]
  Drug uptake: 0.56 % ID/g
Heart [22]
  Drug uptake: 0.28 %ID
Hippocampus
  Drug uptake: 1.28 % ID/g
